From US8318504B2, “MRP2 efflux pathway prognostic method” (priority 2009, dated 2012)

Assays:
[1] = molecular target: T1, ABCC3 (Homo sapiens, UniProt O15438); assay: ATP-dependent transport of CLF into Sf21 membrane vesicles containing ABCC3; type: biochemical
T1 construct: made in house; host or cells: Sf21 insect cells, baculovirus (gift from Borst); plasma membrane vesicles
Method: The production of recombinant baculovirus was as described by de Waart et al. [Liver Int 2006 April; 26(3):362-368]. ABCC3 and ABCG2-recombinant baculovirus were a kind gift from Borst [Breedveld P. et al., Cancer Res 2004 Aug. 15; 64(16):5804-5811 and Borst P. et al., J Biol Chem 2001 Dec. 7; 276(49):46400-46407.]. ABCB11-recombinant baculovirus was a kind gift from Thompson [Thompson R J et al., Gastroenterology 2002 November; 123(5):1649-1658]. Sf21 cells grown at 27° C. were infected with ABCB11, ABCC2, ABCC3 and ABCG2-cDNA containing baculovirus. Cells were harvested at 2-4 days after infection. Membrane vesicle preparation was as described by de Waart et al. [Liver Int 2006 April; 26(3):362-368].
Transport studies with membrane vesicles were performed using the rapid filtration technique as described by Heijn M et al. [Am J Physiol 1992 January; 262(1 Pt 1):C104-C110]. Radiolabel was measured with a scintillation counter. When CLF was used as a probe, filters were placed in a glass tube, 0.1% Triton-X-100 was added and the tubes vortexed. Samples were pipetted in 96-well plates (Kartell, Noviglio, Italy) and the amount CLF quantitated by measurement of fluorescence at λexe 485 nm and λcm 520 nm using a NovoStar (BMG-labtech, Offenburg, Germany). […]

[2] = molecular target: T2, OATP1B1 (Homo sapiens, UniProt Q9Y6L6); assay: Inhibition by CLF of estrone-3-sulfate transport in CHO cells expressing OATP1B1; type: cell-based; settings: 0, 5 or 50 μmol/L CLF, 1 μmol/L estrone-3-sulfate
T2 construct: expressed in transfected cells; host or cells: CHO cells (stably transfected; Treiber et al. 2007)
T2 sequence (Q9Y6L6 1-691): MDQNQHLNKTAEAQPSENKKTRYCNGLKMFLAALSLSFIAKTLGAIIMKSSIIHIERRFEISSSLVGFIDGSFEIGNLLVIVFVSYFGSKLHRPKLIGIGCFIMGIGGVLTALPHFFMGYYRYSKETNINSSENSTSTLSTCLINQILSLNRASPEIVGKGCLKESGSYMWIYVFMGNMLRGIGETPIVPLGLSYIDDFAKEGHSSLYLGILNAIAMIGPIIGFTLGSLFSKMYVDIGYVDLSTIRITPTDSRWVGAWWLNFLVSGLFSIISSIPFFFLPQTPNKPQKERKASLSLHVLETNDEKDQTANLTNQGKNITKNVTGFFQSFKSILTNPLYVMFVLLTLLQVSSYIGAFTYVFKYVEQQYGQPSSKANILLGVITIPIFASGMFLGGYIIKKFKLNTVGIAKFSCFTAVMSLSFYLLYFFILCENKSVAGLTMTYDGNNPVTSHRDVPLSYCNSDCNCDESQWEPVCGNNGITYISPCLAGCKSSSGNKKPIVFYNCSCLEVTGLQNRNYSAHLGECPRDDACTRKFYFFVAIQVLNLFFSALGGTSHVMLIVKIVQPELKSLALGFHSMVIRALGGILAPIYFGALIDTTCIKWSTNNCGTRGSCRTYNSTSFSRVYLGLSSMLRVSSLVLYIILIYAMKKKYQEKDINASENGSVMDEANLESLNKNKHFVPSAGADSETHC
Method: FIGS. 3A-3D relate to inhibition of transport activity of hepatocellular uptake transporters by CLF. CHO cells expressing NTCP, OATP1B1, OATP1B3 and OATP2B1 were incubated with 0, 5 or 50 μmol/L CLF and with the substrates, 2.5 μmol/L TC, 1 μmol/L estrone-3-sulfate, 10 μmol/L TC and 1 μmol/L estrone-3-sulfate, respectively. Data represent means±SD of triplicate determinations.
For all transport experiments, cells grown on 3 cm culture dishes were cultured for 24 hours in media supplemented with 5 mmol/L sodium-butyrate to increase expression levels of transfected transporters [Palermo D P et al., J Biotechnol 1991 June; 19(1):35-47]. • Transport experiments with uptake of radioactively labeled substrates: These experiments were performed as described by Huber R D et al. [Am J Physiol Cell Physiol 2007 February; 292(2):C795-C806]. • Transport experiments with uptake of CLF: Uptake was performed in the same buffers as for the radioactive substrates above. […] After complete solubilization, 1.5 ml was used to measure fluorescence in a Perkin-Elmer LS-5 luminescence-spectrometer set at λexe 486 nm (slit 10 nm) and λem 520 nm (slit 5 nm). Protein was determined with the bicinchoninic acid method using a kit from Interchim (Montfuçon, France). […]

T1 sequence (O15438 whole entry): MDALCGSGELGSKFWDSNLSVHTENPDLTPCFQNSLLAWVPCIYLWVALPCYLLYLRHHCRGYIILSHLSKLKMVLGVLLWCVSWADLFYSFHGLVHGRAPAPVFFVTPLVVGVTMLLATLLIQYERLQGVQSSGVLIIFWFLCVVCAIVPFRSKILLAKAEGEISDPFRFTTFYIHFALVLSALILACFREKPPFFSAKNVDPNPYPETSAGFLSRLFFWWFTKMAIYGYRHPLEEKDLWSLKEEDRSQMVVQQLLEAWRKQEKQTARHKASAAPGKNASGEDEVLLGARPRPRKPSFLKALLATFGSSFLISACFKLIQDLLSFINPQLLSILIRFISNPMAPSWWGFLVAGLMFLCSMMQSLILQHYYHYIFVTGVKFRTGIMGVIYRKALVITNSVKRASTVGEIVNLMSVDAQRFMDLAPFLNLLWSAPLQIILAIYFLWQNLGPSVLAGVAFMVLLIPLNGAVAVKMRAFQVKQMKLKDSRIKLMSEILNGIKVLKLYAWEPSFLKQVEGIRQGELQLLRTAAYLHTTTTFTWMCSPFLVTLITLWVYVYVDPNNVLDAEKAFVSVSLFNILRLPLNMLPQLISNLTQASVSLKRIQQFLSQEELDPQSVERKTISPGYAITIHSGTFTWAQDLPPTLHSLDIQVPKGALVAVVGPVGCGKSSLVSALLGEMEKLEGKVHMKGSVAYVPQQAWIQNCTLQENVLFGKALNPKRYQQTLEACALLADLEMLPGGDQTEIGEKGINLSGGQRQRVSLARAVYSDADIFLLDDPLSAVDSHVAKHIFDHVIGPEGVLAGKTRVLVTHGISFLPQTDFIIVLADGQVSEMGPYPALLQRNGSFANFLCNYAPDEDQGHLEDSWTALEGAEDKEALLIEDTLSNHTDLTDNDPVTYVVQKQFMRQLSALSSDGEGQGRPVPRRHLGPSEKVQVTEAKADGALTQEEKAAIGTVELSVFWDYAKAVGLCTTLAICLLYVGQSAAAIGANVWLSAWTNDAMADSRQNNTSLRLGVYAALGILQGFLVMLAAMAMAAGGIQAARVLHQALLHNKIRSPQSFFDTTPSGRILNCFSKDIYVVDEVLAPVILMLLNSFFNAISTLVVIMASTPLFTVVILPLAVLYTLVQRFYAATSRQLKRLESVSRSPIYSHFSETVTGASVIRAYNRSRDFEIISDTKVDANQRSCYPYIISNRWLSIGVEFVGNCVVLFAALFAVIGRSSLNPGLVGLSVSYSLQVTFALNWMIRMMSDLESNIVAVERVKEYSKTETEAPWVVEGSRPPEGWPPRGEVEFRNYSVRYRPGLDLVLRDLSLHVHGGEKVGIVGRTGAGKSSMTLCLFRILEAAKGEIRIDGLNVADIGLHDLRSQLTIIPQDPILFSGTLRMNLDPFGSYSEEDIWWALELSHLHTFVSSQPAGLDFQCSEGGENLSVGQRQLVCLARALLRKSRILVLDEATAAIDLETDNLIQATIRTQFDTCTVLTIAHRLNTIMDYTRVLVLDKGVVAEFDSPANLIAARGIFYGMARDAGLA

Compound: CC(CCC(=O)NC(CCCCNC(=S)Nc1ccc(-c2c3ccc(=O)cc-3oc3cc(O)ccc23)c(C(=O)O)c1)C(=O)O)C1CCC2C3C(O)CC4CC(O)CCC4(C)C3CC(O)C12C (stereo not drawn) [CLF, cholyl lysyl fluorescein]
- Vmax of ABCC3 mediated transport of CLF ([1]; 30 μg total protein, presence or absence of 4 mmol/L ATP): 188±55 μmol CLF/mg protein/min
- CLF transport in ABCC3 containing membrane vesicles ([1]; compared to control wild type Sf21 membrane vesicles): much higher CLF transport rates
- inhibition of transport of estrone-3-sulfate mediated by OATP1B1 by CLF [2]: much less efficiently
